In patent US20090325202A1, “Methods for Developing and Assessing Therapeutic Agents” (priority 2006, published 2009):

Experiments:
S6 ribosomal protein = experiment: In vivo tumor FNAB Western blot, S6 ribosomal protein phosphorylation (Example 5); conditions: tumor samples of treated animals compared to control
Description: Fine needle aspiration yielded up to 200 μg of total protein as determined using the BCA protein assay (Pierce) and bovine serum albumin as a standard. Protein extracts (15 μg) were added to a loading buffer boiled and electrophoresed on a 7 or 10% (w/v) polyacrylamide gel in the presence of SDS. Molecular weights of the immunoreactive proteins were estimated based upon the relative migration with colored molecular weight protein markers (Amersham Pharmacia Biotech). After electrotransfer to Immobilon-P membranes (Millipore), membranes were blocked at room temperature using SuperBlock (Pierce,#37516) for one hour. The primary antibodies were diluted at 1:1000 in 1:10 dilution of SuperBlock solution and the membranes were incubated with primary antibodies overnight at 4° C. Next day, the membranes were washed and incubated for 1 h at room temperature with horseradish peroxidase (HRP)-conjugated secondary antibodies, rabbit IgG-HRP (SC-2004), or mouse IgG-HRP (SC-2005) from Santa Cruz Biotechnology at a final dilution of 1:3000. After washing three times with Tris-buffered saline antibody binding was visualized using enhanced chemiluminescence (SuperSignal West Pico, Pierce) and autoradiography.
The expression levels and the phosphorylation status of EGFR, ERK1/2 and S6 ribosomal protein were determined on Western blot analysis.

[1] = tested on: Panc 265 human pancreas cancer xenograft; experiment: Panc 265 xenograft tumor growth; assay type: in vivo, nude mice; conditions: CCI-779 20 mg/kg days 1-5 i.p.
Description: Tumor tissue was then cut into slices (5×5×0.5−1 mm diameter) and implanted subcutaneously into nude mice. Tumor slices averaging 5×5×0.5−1 mm diameter from the patient, or 3×3×0.5−1 mm dia in serial passage were implanted subcutaneously into both flanks of nude mice. Tumors were removed under sterile conditions/laminar flow and reimplanted subcutaneously in groups of 5 mice. When the tumors on second passage of each group reached 1.5 cm, they were excised and cut into pieces of 3×3×3 mm, and transplanted on another 35-40 mice.
For the in vivo assessment experiments, treatment started when the mean tumor volumes reach approximately 200 mm.
To obtain cancer cells, each animal tumor was sampled as described above. […] At day 7 of therapy, AD/DQ slides were prepared from tumor FNAB samples to retrospectively correlate the results of in vivo and ex vivo chemosentitivty tests from the same xenograft animal.

p70S6K = experiment: IHC staining of phospho-p70S6K in resected xenograft tumor tissue; assay type: in vivo, human
Description: At the completion of the treatment course, xenografted tissues were harvested and fixed in formalin for 24 hrs. The fixed tissues were paraffin-embedded and cut in 0.5 micron sections onto positively-charged glass slides for immunohistochemical (IHC) labeling. Analysis was performed to determine the IHC pharmacodynamic effects of the drug in the targeted pathway. For IHC staining, slides were deparaffinized and rehydrated in graded concentrations of alcohol by standard techniques before antigen retrieval in citrate buffer pH 6.0 for 20 minutes. Next, the slides were cooled for 20 minutes before washing in 1× TBST (Dako Corp. Carpinteria, Calif.). All staining was performed using a DAKO Autostainer at room temperature. Slides were incubated in 3% H2O2 for 10 minutes, followed by the appropriate dilution of primary antibody for 60 minutes. Tris-HCl (0.2M, pH 7.5) (Quality Biological, Inc, Gaithersburg, Md.) was used as the antibody diluent solution. Dilutions of antibodies used were as follows: Total ERK1/2 (Cell Signaling Technology, Beverly, Mass.) 1:25, p-ERK1/2 (Thr202/Tyr204) (Cell Signaling Technology, Beverly, Mass.) 1:50, p70S6K (Santa Cruz Biotechnology) 1:50, and pp70S6K (Cell Signaling Technology, Beverly, Mass.) 1:50. […]

## CO[C@H]1C[C@@H]2CC[C@@H](C)[C@@](O)(O2)C(=O)C(=O)N2CCCC[C@H]2C(=O)O[C@H]([C@H](C)C[C@@H]2CC[C@@H](OC(=O)C(C)(CO)CO)[C@H](OC)C2)CC(=O)[C@H](C)/C=C(\C)[C@@H](O)[C@@H](OC)C(=O)[C@H](C)C[C@H](C)/C=C/C=C/C=C/1C [temsirolimus, Temsirolimus]
S6 ribosomal protein
  S6 ribosomal protein phosphorylation in vivo: effectively blocked S6 ribosomal protein phosphorylation
[1]
  inhibition of tumor growth: 70%
p70S6K; tumor A194, in vivo treated with temsirolimus
  IHC staining for phosphorylated p70S6K: no effect
p70S6K; tumor A198, in vivo treated with temsirolimus
  IHC staining for phosphorylated p70S6K: strongly decreased staining
